Test results from US20090281054A1, “COMPOSITIONS AND METHODS COMPRISING CAPURAMYCIN ANALOGUES” (priority 2008, published 2009).
Converted amounts (≈) assume the structure as drawn. Like-named read-outs stand apart in the source and are kept apart here.

Columns and labels:
MTB in macrophages = type: cell-based, Mycobacterium tuberculosis; details: INH 0.125 μg/ml; day 0 RLU 1397, Control day 7 9075
M. smegmatis = experiment: Synergy by checkerboard titration (microdilution); type: cell-based; details: M. smegmatis
MTB-H37Rv = experiment: Post-antibiotic effect (PAE); type: cell-based, Mycobacterium tuberculosis; details: 4 μg/ml, 2 hr of exposure
Method: PAE of SQ641. PAE of SQ641 was determined as described (Chan et al. Antimicrob. Agents Chemother., 2004, 48(1), 340-343). At the end of incubation, suspensions were diluted 1/25, and 0.1 ml was injected into each of triplicate BACTEC vials: drug dilution was 1000-fold in the BACTEC vials. Drug carryover controls (to ascertain absence of any carryover drug) consisting of the same MTB suspension as in the test and similar drug dilutions were mixed immediately, diluted 1/25, and 0.1 ml was injected into BACTEC vials. BACTEC vials were incubated at 37° C. and read in a BACTEC TB-460 reader every 24 hr until the cumulative GI in the control reached 999. PAE was calculated from the formula PAE=T−C, where T is the time required for the drug-exposed organisms to reach a cumulative GI of 100 and C is the time required for the controls to reach a cumulative GI of 100.
PAE determines the time required for the organisms to recover following exposure to an antimicrobial agent for a short duration. PAE activities of both SQ641 and INH, each at 4 μg/ml, were investigated with MTB-H37Rv. Following 2 hr of exposure to drugs, the PAE of INH was 17 hr as compared to 55 hr for SQ641. The PAE of SQ641 was over 3 times that of INH.

[1] = tested on: M. smegmatis (MSMG; MC2155); experiment: MIC by microdilution method in 7H9 broth; type: cell-based; details: Mycolicibacterium smegmatis, MC2155|MC^2155; MSMG MC^2155; 72 hr; read-out: MIC
MTB in J774A.1 cells = experiment: Intracellular activity of SQ641 with efflux pump blockers; type: cell-based, Mycobacterium tuberculosis; details: INH 0.25 μg/ml
MTB inside macrophages = experiment: Intracellular activity of DMSO-solubilized drug in MTB infected macrophages; type: cell-based, Mycobacterium tuberculosis; details: 0.25 μg/ml (2 X MIC); Day 0 RLU 443, Control Day 7 4251
[2] = tested on: MTB-pSMT1 luciferase reporter strain; experiment: Activity against slowly replicating (hypoxic) MTB; type: cell-based; details: Mycobacterium tuberculosis
[3] = tested on: intracellular MTB (MTBp-SMT1) in J774A.1 macrophages; experiment: Intracellular activity of SQ641-TPGS micelles; type: cell-based, Mycobacterium tuberculosis
MTB in J774 cells = experiment: Intracellular activity of amino acid conjugates; type: cell-based, Mycobacterium tuberculosis; details: 0.125 μg/ml; day 0 RLU 775, Control day 7 31700
Method: The amino acid conjugates were tested at concentrations of 4 mg/mL and 8 mg/mL compared with a control and isoniazid (INH).
The intracellular activity against MTB by capuramycin amino acid derivatives was tested. Cells J774 were infected with MTB and treated for 7 days with the amino acid derivative. The mean Relative Light Unites (RLU), an estimation of bacterial viability, was measured as described in Snewin et al., Infect. Immun., 1999, 67(9), 4586-4593).

[4] = tested on: M. abscessus (MAB; ATCC 700869); experiment: MIC by microdilution method in 7H9 broth; type: cell-based; details: Mycobacteroides abscessus, ATCC700869; MAB 700869; read-out: MIC
MTB = type: in vivo, mouse; details: PO, 25 mg/kg, 2 weeks treatment
[5] = tested on: M. kansaii (MKN; ATCC12478 & 35775); experiment: MIC by microdilution method in 7H9 broth; type: cell-based, M. kansasii; details: Mycobacterium kansasii, read-out: MIC

## NNC(=O)c1ccncc1 [INH, isoniazid, reference compound]
MTB in macrophages
  Mean RLU on day 7: 434 RLU
M. smegmatis; combination SQ641 + INH
  MIC Combination: 1.0 µg/mL
M. smegmatis; Mycolicibacterium smegmatis, drug alone
  MIC: 8 µg/mL
MTB-H37Rv
  PAE (post-antibiotic effect): 17 h
[1]
  MIC: 8 µg/mL (≈ 58.3 µM)
MTB in J774A.1 cells; Table 13, Day 0 RLU 425, Control Day 7 6283
  Mean RLU at Day 7: 127 RLU
MTB in J774A.1 cells; Table 14, Day 0 RLU 811, Control Day 7 3004
  Mean RLU at Day 7: 20 RLU
MTB inside macrophages
  Mean RLU at Day 7: 11 RLU
[2]
  MIC: 0.062 µg/mL (≈ 0.452 µM)
[2]; Hypoxic, […]
  MIC: 0.125 µg/mL (≈ 0.911 µM)
[3]; Expt 1, one day drug exposure, 0.5 μg/ml, Day 0 RLU 104, CONTROL Day 7 906
  Mean RLU at Day 7: 8 RLU
[3]; Expt 2, four days drug exposure, 0.25 μg/ml, Day 0 RLU 205, CONTROL Day 7 491
  Mean RLU at Day 7: 1 RLU
MTB in J774 cells
  Mean RLU on day 7: 131 RLU
[4]
  MIC: > 32 µg/mL
MTB; Control 3.8 ± 1.9 × 10^8
  Lung CFU ± SD: 1.9 ± 0.8 × 10^7 CFU
MTB; Control 8.58
  Lung Log CFU: 7.28 Log CFU
[5]; ATCC 12478 / ATCC 35775, MKN ATCC35775
  MIC: 1 µg/mL (≈ 7.29 µM)
[5]; MKN ATCC12478
  MIC: 2 µg/mL (≈ 14.6 µM)
